Reference: US20130344174A1, “Bioactive Fractions and Compounds from Polygonum genus, their Use in Anti-diarrhea and the Method of Preparation” (HONG KONG BAPTIST UNIVERSITY, priority 2012, published 2013)

Experiments:
Type in all cases: in vivo, ICR mice
[1] = test system: castor oil-induced diarrhea in mice; test: Castor oil-induced diarrhea in mice; conditions: castor oil model, FIG. 6; for inhibitory effect on diarrhea (stools rate, stools grade, diarrhea index): oral, corilagin 30 and 60 mg/kg, ellagic acid 15 and 30 mg/kg
Procedure: ICR mice weighing 18-22 g were purchased from the Laboratory Animal Services Center, The Chinese University of Hong Kong. The animals were fed with a rodent standard diet with free access to water, and were kept in rooms maintained at 22±1° C. with a 12 h light/dark cycle following international recommendations. All experimental protocols were approved by The Animal Ethics Committees of Hong Kong Baptist University, in accordance with “Institutional Guidelines and Animal Ordinance” (Department of Health, Hong Kong Special Administrative Region). The castor oil-induced diarrhea model, as previously described by Zhou, et al in Zhou [NT]; Hu Zhihua; Wang […]; et al (Institute of Chinese Materia Medica, China Pharmaceutical University, Nanjing); An Inquiry into Preparing Diarrhea Model of Mice and Application of Diarrhea Index[J]; Chinese Traditional and Herbal Drugs; 1994-04, was used in the present study. In brief, extracts, fractions or major components of P. chinense, and loperamide were administered orally for 5 consecutive days. On day 5, each animal was kept individually in a cage, the floor of which was lined with blotting paper, and the paper was changed every hour. 30 min after the last treatment, diarrhea was induced by oral administration of castor oil ([…]). Number of total fecal pellets and wet faeces were counted in 4 h after the administration of castor oil. The diameter of wet faeces was measured and scored in order to evaluate stool consistency as follows: 1-the diameter of wet […] than 1.0 cm; 2-the diameter of wet […] between 1.0 and 2.0 cm; 3-the diameter of wet […] between 2.0 and 3.0 cm; 4- the diameter of wet […] more than 3.0 cm. The stool rate (SR) was calculated through comparing of the number of wet faeces and total faeces, and stool grade (SG) was evaluated according to the formula: [formula] where Nwet is the number of wet faeces; N<1, N1-2, N2-3 and N>3 are the number of wet faeces whose diameter are less than 1.0 cm, between 1.0 and 2.0 cm, between 2.0 and 3.0 cm, and more than 3.0 cm, respectively. Finally, the stool severity was evaluated by the in vivo diarrheal index (DI) and expressed as follows according to the method of Zhou, et al. DI=SR×SG

[2] = test system: magnesium sulphate-induced diarrhea in mice; test: Magnesium sulphate-induced diarrhea in mice; conditions: magnesium sulfate model, FIG. 6; for inhibitory effect on diarrhea (stools rate, stools grade, diarrhea index): oral, corilagin 30 and 60 mg/kg, ellagic acid 15 and 30 mg/kg
Procedure: ICR mice weighing 18-22 g were purchased from the Laboratory Animal Services Center, The Chinese University of Hong Kong. The animals were fed with a rodent standard diet with free access to water, and were kept in rooms maintained at 22±1° C. with a 12 h light/dark cycle following international recommendations. All experimental protocols were approved by The Animal Ethics Committees of Hong Kong Baptist University, in accordance with “Institutional Guidelines and Animal Ordinance” (Department of Health, Hong Kong Special Administrative Region). A protocol for castor oil-induced diarrhea was followed. In brief, diarrhea was induced by orally administration of magnesium sulphate at the dose of 3 g/kg to the animals 30 min after pretreatment with extracts, fractions or major components of P. chinense, and loperamide. All the administrations are carried out through oral route. Stool rate (SR), stool grade (SG) and diarrheal index (DI) were all evaluated.

[3] = test system: intestinal fluid secretion evoked by MgSO4 in mice; test: Antienteropooling assay (MgSO4-evoked intestinal fluid accumulation); conditions: 5 days, compared to control group, FIG. 7
Procedure: ICR mice weighing 18-22 g were purchased from the Laboratory Animal Services Center, The Chinese University of Hong Kong. The animals were fed with a rodent standard diet with free access to water, and were kept in rooms maintained at 22±1° C. with a 12 h light/dark cycle following international recommendations. All experimental protocols were approved by The Animal Ethics Committees of Hong Kong Baptist University, in accordance with “Institutional Guidelines and Animal Ordinance” (Department of Health, Hong Kong Special Administrative Region). The experiment was conducted as previously described with a litter revision. Animals will be randomly divided into six groups. Vehicle control group received 0.5% CMC suspension (10 ml/kg, p.o.), the positive control group was administered loperamide at the dose of 2 mg/kg orally; the test groups were orally administered major principles ellagic acid at the doses of 15 and 30 mg/kg, and corilagin at the doses of 30 and 60 mg/kg, respectively. The whole treatment lasted for 5 consecutive days. Before the last treatment, the mice of all groups were fasted overnight. After one hour of the last treatment on day 5, all groups were given the diarrhea reagent (0.5 ml/mouse of a 20% aq. MgSO4, orally). They were killed 30 min later and the small intestines were collected and weighed to find out the accumulation of intestinal fluid secretion evoked by MgSO4.

[4] = test system: intestinal transit of charcoal meal in mice; test: Gastrointestinal transit test (charcoal meal); conditions: 5 days, FIG. 7
Procedure: ICR mice weighing 18-22 g were purchased from the Laboratory Animal Services Center, The Chinese University of Hong Kong. The animals were fed with a rodent standard diet with free access to water, and were kept in rooms maintained at 22±1° C. with a 12 h light/dark cycle following international recommendations. All experimental protocols were approved by The Animal Ethics Committees of Hong Kong Baptist University, in accordance with “Institutional Guidelines and Animal Ordinance” (Department of Health, Hong Kong Special Administrative Region). The experiment was conducted based on methods known in the art with a litter revision. Animals will be randomly divided into six groups. Vehicle control group received 0.5% CMC suspension (10 ml/kg, p.o.), the positive control group was administered loperamide at the dose of 2 mg/kg orally; the test groups were orally administered major principles ellagic acid at the doses of 15 and 30 mg/kg, and corilagin at the doses of 30 and 60 mg/kg, respectively. The whole treatment lasted for 5 consecutive days. Before the last treatment, the mice of all groups were fasted overnight. Five minutes later of the last treatment on day 5, 0.5 ml of a 3% suspension of deactivated charcoal in 0.5% aqueous Sodium Carboxymethyl Cellulose was administered orally to each mouse. All the mice were killed by cervical […] 30 min later and the distance travelled by the charcoal plug from pylorus to caecum was determined and expressed as a percentage of the total length of the small intestine.

[5] = 60 mg/kg oral vs loperamide 2 mg/kg
[6] = 30 mg/kg oral vs loperamide 2 mg/kg

Row | SMILES | anti-diarrheal activity compared to loperamide [1, 5] | inhibitory effect on diarrhea (stools rate, stools grade, diarrhea index) [1] | anti-diarrheal activity compared to loperamide [2, 5] | inhibitory effect on diarrhea (stools rate, stools grade, diarrhea index) [2] | intestinal fluid volume (pylorus to caecum) ([3]; 30 mg/kg oral) | intestinal fluid volume (pylorus to caecum) ([3]; 60 mg/kg oral) | intestinal transit of charcoal meal ([4]; 15 mg/kg oral) | intestinal transit of charcoal meal ([4]; 30 mg/kg oral) | anti-diarrheal activity compared to loperamide [1, 6] | anti-diarrheal activity compared to loperamide [2, 6] | intestinal fluid volume (pylorus to caecum) ([3]; 15 mg/kg oral)
1 | O=C(O[C@@H]1O[C@@H]2COC(=O)c3cc(O)c(O)c(O)c3-c3c(cc(O)c(O)c3O)C(=O)O[C@H]([C@H]1O)[C@@H]2O)c1cc(O)c(O)c(O)c1 [corilagin] | comparable anti-diarrheal activities as loperamide | significantly inhibitory effects | comparable anti-diarrheal activities as loperamide | significantly inhibitory effects | significantly reduced | significantly reduced | significantly delay | significantly delay | – | – | –
2 | O=c1oc2c(O)c(O)cc3c(=O)oc4c(O)c(O)cc1c4c23 [ellagic acid] | – | significantly inhibitory effects | – | significantly inhibitory effects | significantly reduced | – | – | significantly delay | comparable anti-diarrheal activities as loperamide | comparable anti-diarrheal activities as loperamide | significantly reduced
